Results on two molecules are retold here after patent US7198910B1, “Nucleic acid encoding melanin-concentrating hormone receptor” (Merck & Co., Inc., priority 1999, dated 2007).

Test [1] relates to endogenous Xenopus receptor. In words: Melanophore pigment aggregation control, endogenous melatonin response. The class given is cell-based, Xenopus laevis. The settings on record: stimulating the endogenous Xenopus receptor. As for the experimental part: (§1) For Gi-coupled responses, cell monolayers plated in 96-well microtiter plates were incubated in the presence of 100 μl/well of 70% L-15 media containing 2% fibroblast-conditioned growth medium, 2 mM glutamine, 100 μg/ml streptomycin, 100 units/ml penicillin and 15 mM HEPES, pH 7.3, for 15 minutes in readings at 600 nm were determined, followed by the addition of ligands. After a 1.5 hour incubation in the dark at room temperature final absorbances were determined. Absorbance readings were converted to transmission values to quantitate pigment dispersion using the following formula: 1−Tf/Ti, where Ti=the initial transmission at 600 nm and Tf=the final transmission at 600 nm.
(§2) The Xenopus melanophore system (Daniolos, et al., 1992. Pigment Cell Res. 3, 38–43) is based on the dispersion and aggregation of intracellular pigment granules in response to changes in intracellular second messenger molecules. Agonist activation of a recombinant Gs- or Gq-coupled receptor expressed heterologously in melanophores leads to pigment dispersion. […] Changes in the melanophore pigmentation show a dose-dependent correlation with the level of specific receptor activation, and can be quantified by the change in absorbance at 600 nm between the nonactivated and agonist-activated cells (Daniolos, et al., 1992. Pigment Cell Res. 3, 38–43). […]

Test [2] has as its system endogenous melanophore thrombin receptor. The test is described as follows: Pigment aggregation in mock (non-receptor) transfected melanophores. The test is classed as cell-based, Xenopus laevis. The following applies: represents activation of endogenous thrombin receptor. As for the experimental part: as §1, §2

In the case of `COc1ccc2[nH]cc(CCNC(C)=O)c2c1` [melatonin], the “Aggregation response (control)” value in test [1] is given as “positive aggregation response”.

Consider thrombin, for which the “Pigment aggregation response in mock (non-receptor) transfected melanophores” value in test [2] was “detected”.
